# Measured values taken from PubChem BioAssay (NCI).
#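 Dose response: 5 concentrations. Exposure: 48 h. Format: 96-well plates. Endpoint: linear interpolation; highest concentration if not reached. TGI denotes the concentration required for complete inhibition of growth.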
# What was measured:
# Assay in all cases: NCI-60 cell line screen, 48 h
# 786-0 renal = test system: 786-0 renal
# A498 renal = test system: A498 renal
# A549 NSCLC = test system: A549 NSCLC
# ACHN renal = test system: ACHN renal
# BT-549 breast = test system: BT-549 breast
# CAKI-1 renal = test system: CAKI-1 renal
# CCRF-CEM leukemia = test system: CCRF-CEM leukemia
# COLO 205 colon = test system: COLO 205 colon
# DU-145 prostate = test system: DU-145 prostate
# EKVX NSCLC = test system: EKVX NSCLC
# HCC-2998 colon = test system: HCC-2998 colon
# HCT-116 colon = test system: HCT-116 colon
# HCT-15 colon = test system: HCT-15 colon
# HL-60(TB) leukemia = test system: HL-60(TB) leukemia
# HOP-62 NSCLC = test system: HOP-62 NSCLC
# HOP-92 NSCLC = test system: HOP-92 NSCLC
# HS 578T breast = test system: HS 578T breast
# HT29 colon = test system: HT29 colon
# IGROV1 ovarian = test system: IGROV1 ovarian
# K-562 leukemia = test system: K-562 leukemia
# KM12 colon = test system: KM12 colon
# LOX IMVI melanoma = test system: LOX IMVI melanoma
# M14 melanoma = test system: M14 melanoma
# MALME-3M melanoma = test system: MALME-3M melanoma
# MCF7 breast = test system: MCF7 breast
# MDA-MB-435 = test system: MDA-MB-435
# MDA-N = test system: MDA-N
# MOLT-4 leukemia = test system: MOLT-4 leukemia
# NCI-H226 lung = test system: NCI-H226 lung
# NCI-H23 lung = test system: NCI-H23 lung
# NCI-H460 lung = test system: NCI-H460 lung
# NCI-H522 lung = test system: NCI-H522 lung
# NCI/ADR-RES ovarian = test system: NCI/ADR-RES ovarian
# OVCAR-3 ovarian = test system: OVCAR-3 ovarian
# OVCAR-4 ovarian = test system: OVCAR-4 ovarian
# OVCAR-5 ovarian = test system: OVCAR-5 ovarian
# OVCAR-8 ovarian = test system: OVCAR-8 ovarian
# PC-3 prostate = test system: PC-3 prostate
# RPMI-8226 leukemia = test system: RPMI-8226 leukemia
# RXF 393 renal = test system: RXF 393 renal
# SF-268 CNS = test system: SF-268 CNS
# SF-295 CNS = test system: SF-295 CNS
# SF-539 CNS = test system: SF-539 CNS
# SK-MEL-2 melanoma = test system: SK-MEL-2 melanoma
# SK-MEL-28 melanoma = test system: SK-MEL-28 melanoma
# SK-MEL-5 melanoma = test system: SK-MEL-5 melanoma
# SK-OV-3 ovarian = test system: SK-OV-3 ovarian
# SN12C renal = test system: SN12C renal
# SNB-19 CNS = test system: SNB-19 CNS
# SNB-75 CNS = test system: SNB-75 CNS
# SR leukemia = test system: SR leukemia
# SW-620 colon = test system: SW-620 colon
# T-47D breast = test system: T-47D breast
# TK-10 renal = test system: TK-10 renal
# U251 CNS = test system: U251 CNS
# UACC-257 melanoma = test system: UACC-257 melanoma
# UACC-62 melanoma = test system: UACC-62 melanoma
# UO-31 renal = test system: UO-31 renal
structure (smiles),measurement,setting,value
O=C1NC(=Nc2ccccc2Cl)N/C1=C\c1ccc(Cl)cc1Cl,TGI,786-0 renal,> 100 µM
same,TGI,A498 renal,> 100 µM
same,TGI,A549 NSCLC,> 100 µM
same,TGI,ACHN renal,> 100 µM
same,TGI,BT-549 breast,> 100 µM
same,TGI,CAKI-1 renal,> 100 µM
same,TGI,CCRF-CEM leukemia,> 100 µM
same,TGI,COLO 205 colon,> 100 µM
same,TGI,DU-145 prostate,> 100 µM
same,TGI,EKVX NSCLC,> 100 µM
same,TGI,HCC-2998 colon,> 100 µM
same,TGI,HCT-116 colon,> 100 µM
same,TGI,HCT-15 colon,> 100 µM
same,TGI,HL-60(TB) leukemia,1.84 µM
same,TGI,HOP-62 NSCLC,> 100 µM
same,TGI,HOP-92 NSCLC,> 100 µM
same,TGI,HS 578T breast,> 100 µM
same,TGI,HT29 colon,> 100 µM
same,TGI,IGROV1 ovarian,> 100 µM
same,TGI,K-562 leukemia,> 100 µM
same,TGI,KM12 colon,> 100 µM
same,TGI,LOX IMVI melanoma,> 100 µM
same,TGI,M14 melanoma,> 100 µM
same,TGI,MALME-3M melanoma,> 100 µM
same,TGI,MCF7 breast,> 100 µM
same,TGI,MDA-MB-435,> 100 µM
same,TGI,MDA-N,> 100 µM
same,TGI,MOLT-4 leukemia,> 100 µM
same,TGI,NCI-H226 lung,57.6 µM
same,TGI,NCI-H23 lung,> 100 µM
same,TGI,NCI-H460 lung,> 100 µM
same,TGI,NCI-H522 lung,> 100 µM
same,TGI,NCI/ADR-RES ovarian,> 100 µM
same,TGI,OVCAR-3 ovarian,> 100 µM
same,TGI,OVCAR-4 ovarian,> 100 µM
same,TGI,OVCAR-5 ovarian,> 100 µM
same,TGI,OVCAR-8 ovarian,> 100 µM
same,TGI,PC-3 prostate,> 100 µM
same,TGI,RPMI-8226 leukemia,> 100 µM
same,TGI,RXF 393 renal,40.1 µM
same,TGI,SF-268 CNS,> 100 µM
same,TGI,SF-295 CNS,> 100 µM
same,TGI,SF-539 CNS,> 100 µM
same,TGI,SK-MEL-2 melanoma,58.4 µM
same,TGI,SK-MEL-28 melanoma,> 100 µM
same,TGI,SK-MEL-5 melanoma,> 100 µM
same,TGI,SK-OV-3 ovarian,> 100 µM
same,TGI,SN12C renal,73.6 µM
same,TGI,SNB-19 CNS,> 100 µM
same,TGI,SNB-75 CNS,93 µM
same,TGI,SR leukemia,> 100 µM
same,TGI,SW-620 colon,> 100 µM
same,TGI,T-47D breast,> 100 µM
same,TGI,TK-10 renal,> 100 µM
same,TGI,U251 CNS,> 100 µM
same,TGI,UACC-257 melanoma,> 100 µM
same,TGI,UACC-62 melanoma,> 100 µM
same,TGI,UO-31 renal,> 100 µM
